Assay results: patent US10413505B1, “Pharmaceutical compositions and methods of using the same” (priority 2017, dated 2019)
Where two headings read alike, the source gives them in different places.

Experiments:
[1] = Example 2 plasma pharmacokinetics, normal renal function vs severe renal impairment; settings: severe renal impairment; single intranasal 160 mg cocaine HCl; plasma
[2] = Example 1 urinary pharmacokinetics after intranasal administration; assay type: in vivo, human; settings: healthy subjects, single intranasal 160 mg cocaine HCl; for CL renal / dose excreted: human, urine, 160 mg; for CL renal: inhaled or intranasal; for dose excreted: other: intranasal
Description: (§1) A single dose of a pharmaceutical composition was administered to both nostrils using cottonoid pledgets. […] Each pledget absorbed approximately 1 mL of pharmaceutical composition (i.e., 40 mg cocaine hydrochloride). Two soaked pledgets were placed into each nasal cavity of the subject and against the anterior septum for 20 minutes; thus, a total dose of 160 mg of cocaine hydrochloride was administered.
Urine samples were collected pre-dose and at the following intervals from the start of intranasal application of the pharmaceutical composition: 0-2 hours, 2-4 hours, 4-8 hours, and 8-12 hours. […] A 25-μL aliquot of each urine sample was processed by liquid-liquid extraction.
Urinary pharmacokinetic parameters were analyzed using noncompartmental methods.

[3] = Example 1 single-dose plasma pharmacokinetics after intranasal administration; assay type: in vivo, human; settings: single intranasal 160 mg cocaine HCl; for AUC(0-inf) / AUC(0-t) / Cmax / MRT / Tmax / Vd/F / half-life: human, inhaled or intranasal, 160 mg
Description: Single-dose plasma and urinary pharmacokinetics of the pharmaceutical composition following intranasal administration was characterized in this study. This was a single-dose study in 30 healthy volunteers. The objective of the study was to examine the systemic pharmacokinetics of the pharmaceutical composition following acute, topical intranasal administration.
as §1
Blood samples were collected pre-dose (30 minutes before pledget insertion), and 7.5, 15, 20, 30, 45, 60, 75, 90, and 105 minutes and 2, 3, 4, 6, 8, 10, and 12 hours from the start of application of the pharmaceutical composition.
The effect of gender on Cmax, Tmax, AUClast, AUCinf, and t1/2 was determined. The effects of age, body weight, and BMI on AUClast were determined.

[4] = urine 0-12 h, metabolites as cocaine equivalents

COC(=O)[C@H]1[C@@H](OC(=O)c2ccccc2)C[C@@H]2CC[C@H]1N2C [Cocaine, cocaine, reference compound]
Cmax (Max) [1]: 131.0 ng/mL | Cmax (Min) [1]: 14.1 ng/mL | Tlast (Geometric mean) [1]: 26.9 h | Tlast (Max) [1]: 32.0 h | Tlast (Mean) [1]: 28.0 h | Tlast (Median) [1]: 32.0 h | Tlast (Min) [1]: 720 min | t1/2 (Max) [1]: 519 min | t1/2 (Min) [1]: 91.8 min | Total Urinary Recovery (Geometric mean) [2, 4]: 96.5 µg | Total Urinary Recovery (Mean) [2, 4]: 117 µg | Total Urinary Recovery (Median) [2, 4]: 114 µg | CL renal ([2]; read-out: Renal Clearance (Geometric mean) (converted)): 37.2 mL/min | CL renal ([2]; read-out: Renal Clearance (Mean) (converted)): 47.2 mL/min | CL renal ([2]; read-out: Renal Clearance (Median) (converted)): 42.7 mL/min | dose excreted ([2]; urine 0-12 h, metabolites as cocaine equivalents, read-out: Urinary Recovery (Geometric mean)): 0.0603% | dose excreted ([2]; urine 0-12 h, metabolites as cocaine equivalents, read-out: Urinary Recovery (Mean)): 0.0729% | dose excreted ([2]; urine 0-12 h, metabolites as cocaine equivalents, read-out: Urinary Recovery (Median)): 0.0714% | AUC(0-inf) ([3]; both sexes, plasma, healthy subjects, plasma, read-out: AUCinf (Geometric Mean)): 50.3 ng·h/mL | AUC(0-inf) ([3]; both sexes, plasma, healthy subjects, plasma, read-out: AUCinf (Mean)): 54.9 ng·h/mL | AUC(0-t) ([3]; both sexes, plasma, healthy subjects, plasma, read-out: AUClast (Geometric Mean)): 34.2 ng·h/mL | AUC(0-t) ([3]; both sexes, plasma, healthy subjects, plasma, read-out: AUClast (Mean)): 38.4 ng·h/mL | Cmax ([3]; both sexes, plasma, healthy subjects, plasma, read-out: Cmax (Geometric Mean)): 32.8 ng/mL | MRT ([3]; both sexes, plasma, healthy subjects, plasma, read-out: MRT (Geometric Mean)): 90 min | MRT ([3]; both sexes, plasma, healthy subjects, plasma, read-out: MRT (Mean)): 93.6 min | Tmax ([3]; both sexes, plasma, healthy subjects, plasma, read-out: Tmax (Geometric Mean)): 22.4 min | Vd/F ([3]; both sexes, plasma, healthy subjects, plasma, read-out: Vd/F (Geometric Mean)): 3680 L | Vd/F ([3]; both sexes, plasma, healthy subjects, plasma, read-out: Vd/F (Mean)): 3880 L | AUC(0-inf) ([3]; female, plasma, Female healthy subjects, plasma, read-out: AUCinf (Geometric mean)): 53.9 ng·h/mL | AUC(0-inf) ([3]; female, plasma, Female healthy subjects, plasma, read-out: AUCinf (Mean)): 60.6 ng·h/mL | AUC(0-inf) ([3]; female, plasma, Female healthy subjects, plasma, read-out: AUCinf (Median)): 57.6 ng·h/mL | AUC(0-t) ([3]; female, plasma, Female healthy subjects, plasma, read-out: AUClast (Geometric mean)): 39.4 ng·h/mL | AUC(0-t) ([3]; female, plasma, Female healthy subjects, plasma, read-out: AUClast (Mean)): 44.4 ng·h/mL | AUC(0-t) ([3]; female, plasma, Female healthy subjects, plasma, read-out: AUClast (Median)): 32.4 ng·h/mL | Cmax ([3]; female, plasma, Female healthy subjects, plasma, read-out: Cmax (Geometric mean)): 35.5 ng/mL | Cmax ([3]; female, plasma, Female healthy subjects, plasma, read-out: Cmax (Mean)): 39 ng/mL | Cmax ([3]; female, plasma, Female healthy subjects, plasma, read-out: Cmax (Median)): 37 ng/mL | Tmax ([3]; female, plasma, Female healthy subjects, plasma, read-out: Tmax (Geometric mean)): 23.1 min | Tmax ([3]; female, plasma, Female healthy subjects, plasma, read-out: Tmax (Mean)): 26.9 min | Tmax ([3]; female, plasma, Female healthy subjects, plasma, read-out: Tmax (Median)): 20 min | half-life ([3]; female, plasma, Female healthy subjects, plasma, read-out: t1/2 (Geometric mean) (converted)): 56.5 min | half-life ([3]; female, plasma, Female healthy subjects, plasma, read-out: t1/2 (Mean) (converted)): 60.6 min | half-life ([3]; female, plasma, Female healthy subjects, plasma, read-out: t1/2 (Median) (converted)): 60.6 min | fraction of the 160 mg dose absorbed intact during the 20-minute exposure period (rough estimate, CL/F vs intravenous CL) ([3]; healthy subjects): ~4% | % EXTRAP (Geometric Mean) ([3]; healthy subjects, plasma): 17.7% | % EXTRAP (Mean) ([3]; healthy subjects, plasma): 18.7% | CL/F (Mean) ([3]; healthy subjects, plasma): 3,096 L/h | Clast (Geometric mean) ([3]; healthy subjects, plasma): 7.05 ng/mL | Clast (Mean) ([3]; healthy subjects, plasma): 7.18 ng/mL | Tlast (Geometric mean) ([3]; healthy subjects, plasma): 2.31 h | Tlast (Mean) ([3]; healthy subjects, plasma): 2.40 h | Tmax (Mean) ([3]; healthy subjects, plasma): 26 min | t1/2 (Geometric mean) ([3]; healthy subjects, plasma): 58.5 min | Cmax ([3]; plasma, healthy subjects, plasma, read-out: Cmax (Mean)): 37 ± 17.3 ng/mL | Cmax ([3]; plasma, healthy subjects, plasma, read-out: Cmax (range across subjects)): 7.93 to 70.3 ng/mL | Tmax ([3]; plasma, healthy subjects, plasma, read-out: Tmax (Mean)): 25.8 ± 20.4 min | half-life ([3]; plasma, healthy subjects, plasma, read-out: t1/2 (Mean) (converted)): 62.4 ± 21 min | AUC(0-inf) ([3]; male, plasma, Male healthy subjects, plasma, read-out: AUCinf (Geometric mean)): 45.7 ng·h/mL | AUC(0-inf) ([3]; male, plasma, Male healthy subjects, plasma, read-out: AUCinf (Mean)): 47.2 ng·h/mL | AUC(0-inf) ([3]; male, plasma, Male healthy subjects, plasma, read-out: AUCinf (Median)): 46.2 ng·h/mL | AUC(0-t) ([3]; male, plasma, Male healthy subjects, plasma, read-out: AUClast (Geometric mean)): 29.1 ng·h/mL | AUC(0-t) ([3]; male, plasma, Male healthy subjects, plasma, read-out: AUClast (Mean)): 31.5 ng·h/mL | AUC(0-t) ([3]; male, plasma, Male healthy subjects, plasma, read-out: AUClast (Median)): 28.5 ng·h/mL | Cmax ([3]; male, plasma, Male healthy subjects, plasma, read-out: Cmax (Geometric mean)): 30 ng/mL | Cmax ([3]; male, plasma, Male healthy subjects, plasma, read-out: Cmax (Mean)): 34.6 ng/mL | Cmax ([3]; male, plasma, Male healthy subjects, plasma, read-out: Cmax (Median)): 31.6 ng/mL | Tmax ([3]; male, plasma, Male healthy subjects, plasma, read-out: Tmax (Geometric mean)): 21.7 min | Tmax ([3]; male, plasma, Male healthy subjects, plasma, read-out: Tmax (Mean)): 25 min | Tmax ([3]; male, plasma, Male healthy subjects, plasma, read-out: Tmax (Median)): 20 min | half-life ([3]; male, plasma, Male healthy subjects, plasma, read-out: t1/2 (Geometric mean) (converted)): 60.6 min | half-life ([3]; male, plasma, Male healthy subjects, plasma, read-out: t1/2 (Mean) (converted)): 63.6 min | half-life ([3]; male, plasma, Male healthy subjects, plasma, read-out: t1/2 (Median) (converted)): 58 min
